Laboratory results as given in patent EP0326331B1, “Substituted quinolines and cinnolines” (Dow AgroSciences LLC, priority 1988, dated 1989).
Like-named read-outs stand apart in the source and are kept apart here.

Legend:
Assay type in all cases: in vivo
[1] = system: Puccinia recondita tritici (leaf rust); test: Test 1 greenhouse foliar spray screen, leaf rust on wheat; conditions: for LEAF RUST: disease control rating, foliar spray on wheat, 400 ppm (+++ at 100 ppm); for pest or weed control at 400 ppm: Puccinia recondita, foliar, Test 1, foliar spray on wheat, disease control rating at 400 ppm / 100 ppm
[2] = system: Pseudoperonospora cubensis (downy mildew); test: Test 1 greenhouse foliar spray screen, downy mildew on squash; conditions: for DOWN MDEW: disease control rating, foliar spray on squash, 400 ppm (+++ at 100 ppm); for pest or weed control at 400 ppm: Pseudoperonospora cubensis, foliar, Test 1, foliar spray on squash, disease control rating at 400 ppm / 100 ppm, read-out: DOWN MDEW
plant pathogens = test: Fungicidal efficacy against a broad spectrum of plant pathogens (summary of screen); conditions: summary statement in the description
[3] = system: southern armyworm (Spodopetra eridania Cramer); test: Mite/insect screen, SAW; conditions: Spodoptera eridania, percent mortality, read-out: SAW RESULTS %
Procedure, shortened: (§1)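 Formulation: acetone/alcohol 50:50 + sulfonate/nonionic emulsifiers, water-diluted to indicated concs. Spray both leaf surfaces to runoff, 10 psi; dry 1 h. Armyworm: 2 excised uninfested leaves in Petri dish. Score % mortality after standard exposure.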

[4] = system: Botrytis cinerea (gray mold); test: Test 1 greenhouse foliar spray screen, gray mold on grape berries; conditions: for GRAY MOLD: disease control rating, spray on grape berries, 400 ppm (+++ at 100 ppm); for pest or weed control at 400 ppm: Botrytis cinerea, foliar, Test 1, spray on grape berries, disease control rating at 400 ppm / 100 ppm
[5] = system: Twospotted spider mites (Tetranychus urticae Koch); test: Mite/insect screen, SM; conditions: for mortality at 200 ppm / mortality at 400 ppm: Tetranychus urticae, read-out: SM RESULTS %; for mortality at 200 ppm / mortality at 400 ppm / SM RESULTS %: percent mortality; for activity as miticides: summary statement in the description
Procedure, shortened: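 Compounds dissolved in 50:50 acetone/alcohol containing sulfonate/nonionic emulsifier blends, then diluted with water to the indicated concentrations. Leaves sprayed on both surfaces to runoff at 10 psi and dried one hour. Percent mortality scored after standard exposure periods.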

[6] = system: Erysiphe graminis tritici (powdery mildew); test: Test 1 greenhouse foliar spray screen, powdery mildew on wheat; conditions: for POWD MDEW: disease control rating, foliar spray on wheat, 400 ppm (+++ at 100 ppm); for pest or weed control at 400 ppm: Blumeria graminis, foliar, Test 1, foliar spray on wheat, disease control rating at 400 ppm / 100 ppm, read-out: POWD MDEW
[7] = system: melon aphids (Aphis gossypii Glover); test: Mite/insect screen, MA; conditions: percent mortality; for mortality at 200 ppm / mortality at 400 ppm: Aphis gossypii, read-out: MA RESULTS %
Procedure, shortened: as §1

corn rootworm = test: Mite/insect screen, CRW; conditions: percent mortality; for mortality at 12 ppm / mortality at 24 ppm: read-out: CRW RESULTS %
Procedure, shortened: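 Percent mortality is evaluated once the standard exposure period ends. Test material is applied as a water dilution of an acetone/alcohol (50:50) stock carrying two sulfonate/nonionic emulsifiers (23 and 13 g per liter).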

[8] = system: Pyricularia oryzae (rice blast); test: whole plant or invertebrate; conditions: for RICE BLAST: disease control rating, foliar spray on rice, 400 ppm (+++ at 100 ppm); for pest or weed control at 400 ppm: Pyricularia oryzae, foliar, read-out: RICE BLAST, Test 1, foliar spray on rice, disease control rating at 400 ppm / 100 ppm
[9] = system: Venturia inaequalis (apple scab); test: Test 1 greenhouse foliar spray screen, apple scab on apple seedling; conditions: for APPL SCAB: disease control rating, foliar spray on apple seedling, 400 ppm (+++ at 100 ppm)
[10] = system: Cercospora beticola (leaf spot); test: Test 1 greenhouse foliar spray screen, leaf spot on sugar beet; conditions: for LEAF SPOT: disease control rating, foliar spray on sugar beet, 400 ppm (+++ at 100 ppm)
[11] = system: Septoria tritici (leaf blotch); test: Test 1 greenhouse foliar spray screen, leaf blotch on wheat; conditions: for LEAF BLOT: disease control rating, foliar spray on wheat, 400 ppm (+++ at 100 ppm)
[12] = summary statement in the description
[13] = foliar, rate 400 ppm, foliar spray on squash
[14] = foliar, rate 200 ppm, foliar spray on squash

| SMILES | LEAF RUST [1] | DOWN MDEW [2] | activity against a broad spectrum of plant pathogens (plant pathogens) | mortality at 400 ppm ([3]; SAW, SM & MA RATE 400 PPM) | GRAY MOLD [4] | mortality at 400 ppm ([5]; SAW, SM & MA RATE 400 PPM) | POWD MDEW [6] | mortality at 400 ppm ([7]; SAW, SM & MA RATE 400 PPM) | mortality at 24 ppm (corn rootworm; CRW RATE 24.00 PPM) | RICE BLAST [8] | pest or weed control at 400 ppm [1] | pest or weed control at 400 ppm [2] | mortality at 400 ppm [3, 13] | pest or weed control at 400 ppm [4] | mortality at 400 ppm [5, 13] | pest or weed control at 400 ppm [6] | mortality at 400 ppm [7, 13] | mortality at 24 ppm (corn rootworm; CRW rate 24.00 ppm) | pest or weed control at 400 ppm [8] | also measured |
| --- | --- | --- | --- | --- | --- | --- | --- | --- | --- | --- | --- | --- | --- | --- | --- | --- | --- | --- | --- | --- |
| Fc1cccc2c(NCCc3cccc(Oc4ccccc4)c3)ccnc12 [Example 39, 8-fluoro-N-[2-(3-phenoxyphenyl)ethyl]-4-quinolinamine] | +++ (90-100% control at 100 ppm) | +++ (90-100% control at 100 ppm) | particularly excellent activity | 0% | - (0-19% control at 400 ppm) | 0% | +++ (90-100% control at 100 ppm) | 0% | 0% | +++ (90-100% control at 100 ppm) | – | – | – | – | – | – | – | – | – | mortality at 200 ppm ([3]; SAW, SM & MA RATE 200 PPM): 0%; mortality at 200 ppm ([5]; SAW, SM & MA RATE 200 PPM): 0%; mortality at 200 ppm ([7]; SAW, SM & MA RATE 200 PPM): 0%; mortality at 12 ppm (corn rootworm; CRW RATE 12.00 PPM): 0% |
| Fc1cccc2c(NCCc3cccc(-c4ccccc4)c3)ccnc12 [Example 72, N-[2-(1,1'-biphenyl)-3-ylethyl]-8-fluoro-4-quinolinamine] | +++ (90-100% control at 100 ppm) | +++ (90-100% control at 100 ppm) | particularly excellent activity | 0% | - (0-19% control at 400 ppm) | 0% | ++ (90-100% control at 400 ppm) | 0% | 0% | +++ (90-100% control at 100 ppm) | – | – | – | – | – | – | – | – | – | – |
| Fc1cccc2c(NCCc3ccc(Cl)cc3Cl)ccnc12 [Example 76, N-[2-(2,4-dichlorophenyl)ethyl]-8-fluoro-4-quinolinamine] | +++ (90-100% control at 100 ppm) | +++ (90-100% control at 100 ppm) | particularly excellent activity | – | - (0-19% control at 400 ppm) | – | ++ (90-100% control at 400 ppm) | – | – | +++ (90-100% control at 100 ppm) | – | – | – | – | – | – | – | – | – | APPL SCAB [9]: + (20-89% control at 400 ppm); mortality at 200 ppm ([5]; SAW, SM & MA RATE 200 PPM): 0%; SM RESULTS % ([5]; SAW, SM & MA RATE 200 PPM): 0%; mortality at 200 ppm ([7]; SAW, SM & MA RATE 200 PPM): 0%; MA RESULTS % ([7]; SAW, SM & MA RATE 200 PPM): 0%; LEAF SPOT [10]: - (0-19% control at 400 ppm); LEAF BLOT [11]: +++ (90-100% control at 100 ppm); CRW RESULTS % (corn rootworm; CRW RATE 12.00 PPM): 0%; mortality at 12 ppm (corn rootworm; CRW RATE 12.00 PPM): 0% |
| CC(C)c1ccc(CCNc2ccnc3c(F)cccc23)cc1 [Example 114, N-[2-[4-(i-propyl)phenyl]ethyl]-8-fluoro-4-quinolinamine] | +++ (90-100% control at 100 ppm) | +++ (90-100% control at 100 ppm) | particularly excellent activity | 70% | - (0-19% control at 400 ppm) | 100% | +++ (90-100% control at 100 ppm) | 30% | 0% | +++ (90-100% control at 100 ppm) | – | – | – | – | – | – | – | – | – | activity against downy mildew [2, 12]: particularly excellent activity; APPL SCAB [9]: - (0-19% control at 400 ppm); activity as miticides [5]: particularly excellent activity; LEAF SPOT [10]: +++ (90-100% control at 100 ppm); LEAF BLOT [11]: +++ (90-100% control at 100 ppm); activity against rice blast [8, 12]: particularly excellent activity |
| Fc1cccc2c(OCCc3ccccc3C(F)(F)F)ccnc12 [Example 206, 8-fluoro-4-[2-(2-(trifluoromethyl)phenyl)ethoxy]quinoline] | – | – | particularly excellent activity | – | – | – | – | – | – | – | 90 to 100% | 90 to 100% | 0% | 0 to 19% | 0% | 90 to 100% | 0% | 0% | 90 to 100% | – |
| Fc1cccc2c(OCCc3ccc(Cl)cc3)ccnc12 [Example 209, 4-[2-(4-chlorophenyl)-ethoxy]-8-fluoroquinoline] | – | – | particularly excellent activity | – | – | – | – | – | – | – | 90 to 100% | 90 to 100% | – | 0 to 19% | – | 90 to 100% | – | – | 90 to 100% | pest or weed control at 400 ppm ([9]; Venturia inaequalis, Test 1, foliar spray on apple seedling, disease control rating at 400 ppm / 100 ppm, read-out: APPL SCAB): 20 to 89%; mortality at 200 ppm [5, 14]: 0%; SM RESULTS % ([5]; rate 200 ppm, foliar spray on squash): 0%; pest or weed control at 400 ppm ([10]; Cercospora beticola, Test 1, foliar spray on sugar beet, disease control rating at 400 ppm / 100 ppm): 90 to 100%; pest or weed control at 400 ppm ([11]; Zymoseptoria tritici, Test 1, foliar spray on wheat, disease control rating at 400 ppm / 100 ppm, read-out: LEAF BLOT): 90 to 100%; CRW RESULTS % (corn rootworm; CRW rate 12.00 ppm): 0%; mortality at 12 ppm (corn rootworm; CRW rate 12.00 ppm): 0% |
| Cc1cccc(CCOc2ccnc3c(F)cccc23)c1 [Example 224, 8-fluoro-4-[2-(3-methylphenyl)ethoxy]quinoline] | – | – | particularly excellent activity | – | – | – | – | – | – | – | 90 to 100% | 90 to 100% | 0% | 0 to 19% | 0% | 90 to 100% | 0% | 0% | 90 to 100% | – |
| Fc1ccccc1CCOc1ccnc2c(F)cccc12 [Example 225, 8-fluoro-4-[2-(2-fluorophenyl)ethoxy]quinoline] | – | – | particularly excellent activity | – | – | – | – | – | – | – | 90 to 100% | 90 to 100% | 0% | 0 to 19% | 0% | 90 to 100% | 0% | 0% | 90 to 100% | – |
| CC(C)c1ccc(CCOc2ccnc3c(F)cccc23)cc1 [Example 238, 8-fluoro-4-[2-(4-(i-propyl)phenyl)ethoxy]quinoline] | – | – | particularly excellent activity | – | – | – | – | – | – | – | 90 to 100% | 90 to 100% | 100% | 20 to 89% | 0% | 90 to 100% | 0% | 0% | 90 to 100% | mortality at 200 ppm [3, 14]: 0%; mortality at 200 ppm [5, 14]: 100%; activity as miticides [5]: particularly excellent activity; mortality at 200 ppm [7, 14]: 100%; mortality at 12 ppm (corn rootworm; CRW rate 12.00 ppm): 0% |
| CC(C)c1ccc(CCCc2ccnc3c(F)cccc23)cc1 [Example 256, 8-fluoro-4-[3-(4-(i-propyl)phenyl)propyl]quinoline] | – | – | particularly excellent activity | – | – | – | – | – | – | – | 90 to 100% | 90 to 100% | 100% | 0 to 19% | 0% | 90 to 100% | 0% | 100% | 90 to 100% | – |
